# Experimental data from article PMC12796071, “Evaluation of [^18F]MNI-1054, a novel PET ligand for lysine-specific histone demethylase 1A (LSD1), in non-human primates” (EJNMMI Research, 2025).
# “And” between values parts separate entries of the source, which are not always exact repeats. Equal values may be shown once. “Also recorded” adds a separate entry of the source.
# Experiments:
# [1] = TAK-418 plasma concentration after 5-minute intravenous bolus; type: in vivo, rhesus monkeys (macaca mulatta); details: 0.3 mg/kg iv
# LSD1 [2] = target: T1, LSD1 (Macaca mulatta, UniProt I2CUD2); experiment: PET imaging of the testes (baseline and TAK-418 blocking); details: TAK-418 3.0 mg/kg iv 120 min before tracer, M3
# Procedure: TAK-418 (3 mg/kg) was administered as an intravenous bolus over 5-min, starting 120 min prior to [^18F]MNI-1054 administration.
# LSD1 [3] = target: T1, LSD1; experiment: LSD1 enzyme occupancy in brain from [18F]MNI-1054 PET blocking, self-block and repopulation studies; type: in vivo, rhesus monkeys (macaca mulatta); set-up: from tissue; host or cells: brain of living rhesus monkeys (M1, M2), in vivo PET; details: for Occupancy: from Ki
# Procedure: M1 and M2 each completed a scan at baseline to assess brain penetration and kinetics and to serve as reference for the blocking and displacement studies. A self-block study with cold 3 mg/kg MNI-1054, starting 5 min prior to [^18F]MNI-1054 administration, was conducted in M1 to assess regional differences in non-specific binding.
# Blocking studies with the LSD1 inhibitor TAK-418 ([…]) were performed to measure the dose-occupancy relationship for this compound. For blocking studies, TAK-418 was administered intravenously 2 h prior to [^18F]MNI-1054. Prior to conducting these blocking studies, a displacement study with TAK-418 (3 mg/kg) was performed to confirm irreversible tracer binding, in which TAK-418 was administered 1.5 h post [^18F]MNI-1054 administration. For all studies involving TAK-418, the test article was administered intravenously over 5 min. Due to the irreversible binding of these compounds to LSD1, the time taken for the enzyme to re-populate was investigated by imaging one animal (M2) with [^18F]MNI-1054 at 24 and 48 h post TAK-418 treatment (0.3 mg/kg). Each animal also underwent a high-resolution T1-weighted structural brain MRI scan with a 3-D MPRAGE sequence on a separate day for anatomical reference.
# Regional occupancy due to TAK-418 or unlabeled MNI-1054 as measured with [^18F]MNI-1054 was computed as the percent change relative to the baseline value of Ki, i.e. where the drug was either TAK-418 or MNI-1054. An Emax model with maximum occupancy constrained to a value less than 100% was fitted to the dose-occupancy plot to estimate Omax (maximal occupancy) and ED50 [mg/kg] representing the injected TAK-418 dose yielding 50% LSD1 occupancy.
# [4] = cerebellum, TAK-418 iv 2 h before tracer
smiles,measurement,setting,value
O=C(NC1CCOCC1)c1csc([C@@H]2C[C@H]2NCC2CC2)c1 [TAK-418],TAK-418 levels in plasma,"[1]; 24 and 48 hours post-dose, M2",no detectable levels; also recorded: below the level of detection
same,plasma concentration as percent of its peak value,[1]; after 5 h,0.45%
same,occupancy in the testes,LSD1 [2]; from fractional changes in a parameter other than Ki,94.4%
same,signal blockade in the testes,"LSD1 [2]; compared with control leg muscle, 3 mg/kg",significant signal blockade; also recorded: substantial reduction
same,Occupancy based on fractional changes in k3,"LSD1 [3]; cerebellum, TAK-418 0.005 mg/kg, 2 h post-dose",2.4%
same,Occupancy,"LSD1 [3]; cerebellum, TAK-418 0.005 mg/kg, 2 h post-dose, M2",−21.3%
same,[18F]MNI-1054 Ki 2 h post-dose,"LSD1 [3]; cerebellum, TAK-418 0.005 mg/kg, M2",0.057 mL/cm^3/min
same,Occupancy,"LSD1 [3]; cerebellum, TAK-418 0.01 mg/kg, 2 h post-dose, M1",47.3%
same,[18F]MNI-1054 Ki 2 h post-dose,"LSD1 [3]; cerebellum, TAK-418 0.01 mg/kg, M1",0.030 mL/cm^3/min
same,Occupancy,"LSD1 [3]; cerebellum, TAK-418 0.03 mg/kg, 2 h post-dose, M2",62.5%
same,[18F]MNI-1054 Ki 2 h post-dose,"LSD1 [3]; cerebellum, TAK-418 0.03 mg/kg, M2",0.017 mL/cm^3/min
same,Occupancy,"LSD1 [3]; cerebellum, TAK-418 0.3 mg/kg, 2 h post-dose, M1",89.9%
same,LSD1 enzyme occupancy,"LSD1 [3]; cerebellum, TAK-418 0.3 mg/kg, 24 h post-dose, M2",29.8%
same,[18F]MNI-1054 Ki 2 h post-dose,"LSD1 [3]; cerebellum, TAK-418 0.3 mg/kg, M1",0.006 mL/cm^3/min
same,half-life for occupancy to decrease to zero (proxy for LSD1 enzyme repopulation),"LSD1 [3]; cerebellum, TAK-418 0.3 mg/kg, exponential fit to 2, 24 and 48 h occupancy",12.28 h
same,Occupancy,"LSD1 [3]; cerebellum, TAK-418 3 mg/kg, 2 h post-dose, M1, 3 mg/kg",90.1%
same,[18F]MNI-1054 Ki 2 h post-dose,"LSD1 [3]; cerebellum, TAK-418 3 mg/kg, M1",0.005 mL/cm^3/min
same,ED50 (Emax model fit),LSD1 [3]; [4],0.0224 mg/kg and ~ 0.0224 mg/kg
same,Omax (Emax model fit),LSD1 [3]; [4],95.6%
same,ED50 (Emax model fit),LSD1 [3]; occipital cortex,0.0279 mg/kg and ~ 0.0279 mg/kg
same,Omax (Emax model fit),LSD1 [3]; occipital cortex,77.3%
same,ED50 (Emax model fit),LSD1 [3]; pons,0.046 mg/kg
same,Omax (Emax model fit),LSD1 [3]; pons,73.3%
